Tests used:
[1] = in vitro digestibility: hydrolysis with pancreatic lipase; assay type: in vitro ADME, porcine; conditions: pig, pH 7.1 buffer, 37° C., same conditions as triolein control
Experimental: (§1) This example outlines the procedure for estimating the in vitro digestibility of the synthetic fat mimetics of this invention.
(§2) 1. Buffer: A pH 7.1 phosphate buffer is prepared by dissolving 6.8 g KH2 PO4 in 1 L of millipore filtered water (to yield 0.05 M phosphate). Fifty mg Ca(NO3)2 is added and 5.0 g cholic acid (Na salt, an ox bile isolate from Sigma) to give 0.3 mM Ca++ and 0.5 % cholic acid in 0.05 M phosphate. The pH is adjusted to approximately 7.1 with solid NaOH. Several drops of Baker "Resi-analyzed" toluene are added to prevent bacterial growth during storage at 3°-5° C. 2. Lipase: About 15 mg/mL commercial porcine pancreatic lipase from U.S. Biochemical Corporation is dissolved in buffer.
(§3) 3. Substrates and Standards: A 1.0 mL volumetric flask is charged with an amount of lipid substrate calculated to give a concentration of 200 nanomoles per microliter in Baker "Resianalyzed" toluene. (The proper concentration may be approximated by doubling the molecular weight of the lipid in question, dividing by 10, and diluting to the mark; this yields about 200 nanomoles per microliter.) This preparation affords the substrate to be used in the hydrolysis reactions.
(§4) Fatty acids and glyceride standards from Nu Chek or Sigma are prepared for elution on TLC plates (prewashed with 1:1 chloroform/methanol) by diluting the substrate solution with 10:1 toluene (1 part substrate plus 9 parts toluene) in septum vials.
(§5) In a 25 mL Erlenmeyer, emulsify 20 mL buffer and 40 microliters of substrate using an ultrasonic disrupter at a microtip maximum setting for approximately 10 seconds. […] Place in a 37° C. water bath and stir vigorously. After temperature equilibration, add 40 microliters of enzyme solution and start timing. Remove 5.0 mL aliquots at convenient time intervals for analysis. To establish a standard curve for triolein, aliquots are taken at 10, 20, 30 and 40 minutes.
(§6) Add the aliquot to a 15 mL glass centrifuge tube containing a drop of concentrated HCl. Add approximately 3 mL of a 2:1 mixture of CHCl3 :CH3 OH and shake vigorously. Centrifuge at approximately 5000 rpm for 5 minutes and transfer the bottom layer with a Pasteur pipet to a 5 mL septum vial. Repeat the extraction step once and combine the two bottom layers. Evaporate the solvent in nitrogen gas. After about half of the solvent is removed, add an equivalent volume absolute ethanol and continue evaporation in a nitrogen stream until dryness is achieved. Samples may be warmed with a heat gun to facilitate drying.
(§7) When the samples are dry, add exactly 200 microliters of toluene containing 10% DMSO, cap tightly, and spot TLC plate with 2.0 microliters per channel. […]

[2] = rat, in vivo; cited from earlier work
[3] = tested on: porcine pancreatic lipase; experiment: in vitro digestibility: hydrolysis with pancreatic lipase; assay type: in vitro ADME; conditions: pH 7.1 buffer, 37° C., in 10 minutes
Experimental: as §1, §2, §3, §4, §5, §6, §7

[4] = in vivo animal feeding study for caloric availability; parameters: species or system male Sprague-Dawley rats; conditions: rats, diet of 50% fort and 21% test compound, 14 days; from weight gain and corn oil base line correlation
Description: This example illustrates how the novel fat mimetics of this invention are screened for caloric availability by a carefully controlled in vivo animal feeding study.
An experimental relationship between total calories ingested and animal body weight gain is established by monitoring the body weight gain associated with consumption of a nutritionally balanced diet containing varying concentrations of a reference substance such as corn oil which has a known caloric availability. Correlations between total calories ingested and body weight gain are excellent (r=0.99).
Caloric availability of a test material is evaluated by substituting a specific weight of the test material for the reference substance and observing the body weight gain. The gain in body weight is equated to a total number of calories using the correlation previously established for the reference data. The estimated number of calories ingested are divided by the weight of test material to give the apparent calories per gram for the test material. Generally speaking, in these bioavailability studies, the degree of perianal pelt soiling correlates with reduced bioavailability.
The test animals are six-week-old male Sprague-Dawley rats obtained from the Portage, Michigan facility of the Charles River Laboratories, Inc. After acclimation for 15 days, the test duration is 14 days. […]

metabolised [1] | Compound | further results
10% | CCCCCCCC/C=C\CCCCCCCC(=O)NC(C)(COC(=O)CCCCCCC/C=C\CCCCCCCC)COC(=O)CCCCCCC/C=C\CCCCCCCC [Example 4, 2-Methyl-1,3-bis(oleoyloxy)propyl 2-oleamide] | –
– | corn oil | caloric availability of reference substance [2]: 9.0 kcal/gm
– | CCCCCCCC/C=C\CCCCCCCC(=O)OCC(COC(=O)CCCCCCC/C=C\CCCCCCCC)OC(=O)CCCCCCC/C=C\CCCCCCCC [triolein] | hydrolysis of triglyceride control [3]: substantially hydrolyzed
50% | CCCCCCCC/C=C\CCCCCCCC(=O)NCC(COC(=O)CCCCCCC/C=C\CCCCCCCC)OC(=O)CCCCCCC/C=C\CCCCCCCC (stereo not drawn) [Example 2, 2,3-Bis(oleyoyloxy)propyl oleamide] | caloric availability (kcal/gram upon being metabolized) [4]: about 3.3 kcal/gram
50% | CCCCCCCC/C=C\CCCCCCCC(=O)NC(COC(=O)CCCCCCC/C=C\CCCCCCCC)COC(=O)CCCCCCC/C=C\CCCCCCCC [Example 3, 1,3-Bis(oleoyloxy)propyl 2-oleamide] | –

— patent US5059442A, “Primary amide esters as low calorie fat mimetics” (Nabisco Brands, Inc., priority 1989, dated 1991)
